Laboratory results as given in patent US4565699A, “Composition of matter and process” (The Upjohn Company, priority 1983, dated 1986).
In brackets after ≈: the same amount, converted by molar mass. Like-named read-outs stand apart in the source and are kept apart here.

Key:
Solubilities = format: physicochemical
Streptococcus faecalis = test: MIC, standard tube dilution assay, BHI medium; format: cell-based; conditions: Enterococcus faecalis, UC694; UC 694; read-out: Minimum inhibitory concentration
Description: (§1) The assay is a standard tube dilution assay using BHI (Brain Heart Infusion medium-Difco). "UC" is a registered trademark of The Upjohn Company Culture Collection.

Haemophilus influenzae = test: MIC, standard tube dilution assay, BHI medium; format: cell-based
Description: as §1

Pseudomonas aeruginosa = test: MIC, standard tube dilution assay, BHI medium; format: cell-based
Description: as §1

Enterobacter cloacae = test: MIC, standard tube dilution assay, BHI medium; format: cell-based; conditions: UC9382, UC 9382, read-out: Minimum inhibitory concentration
Description: as §1

Streptococcus pneumoniae = test: MIC, standard tube dilution assay, BHI medium; format: cell-based; conditions: UC41, UC 41, read-out: Minimum inhibitory concentration
Description: as §1

Staphylococcus aureus = test: MIC, standard tube dilution assay, BHI medium; format: cell-based
Description: as §1

Klebsiella pneumoniae = test: MIC, standard tube dilution assay, BHI medium; format: cell-based; conditions: UC58, UC 58, read-out: Minimum inhibitory concentration
Description: as §1

Citrobacter freundii = test: MIC, standard tube dilution assay, BHI medium; format: cell-based; conditions: UC3507, UC 3507, read-out: Minimum inhibitory concentration
Description: as §1

Escherichia coli = test: MIC, standard tube dilution assay, BHI medium; format: cell-based; conditions: UC311, UC 311, read-out: Minimum inhibitory concentration
Description: as §1

Serratia marcescens = test: MIC, standard tube dilution assay, BHI medium; format: cell-based; conditions: UC6888, UC 6888, read-out: Minimum inhibitory concentration
Description: as §1

Streptococcus pyogenes = test: MIC, standard tube dilution assay, BHI medium; format: cell-based; conditions: UC152, UC 152, read-out: Minimum inhibitory concentration
Description: as §1

Gram-positive bacteria = test: Antimicrobial spectrum; format: cell-based
Description: as §1

In the case of `C=C/C(C)=C/C1(CC)SC(=O)C(CC(N)=O)=C1O` (stereo not shown) [U-68,204], the Solubility (Solubilities; most organic solvents) is reported as “soluble in most organic solvents”, the Solubility (Solubilities; water) is reported as “not soluble in water” and the MIC (Streptococcus faecalis) is reported as over 600 µg/mL. For the same compound, the MIC (Haemophilus influenzae; UC6482, UC 6482, read-out: Minimum inhibitory concentration) was 9.4 µg/mL (≈ 35.2 µM), the MIC (Haemophilus influenzae; UC6483, UC 6483, read-out: Minimum inhibitory concentration) was 19 µg/mL (≈ 71.1 µM) and the MIC (Pseudomonas aeruginosa; UC6432, UC 6432, read-out: Minimum inhibitory concentration) was over 600 µg/mL. The MIC (Pseudomonas aeruginosa; UC6676, UC 6676, read-out: Minimum inhibitory concentration) was over 600 µg/mL, the MIC (Pseudomonas aeruginosa; UC6954, UC 6954, read-out: Minimum inhibitory concentration) was over 600 µg/mL and the MIC (Pseudomonas aeruginosa; UC6955, UC 6955, read-out: Minimum inhibitory concentration) was 19 µg/mL (≈ 71.1 µM). It also gave an MIC (Pseudomonas aeruginosa; UC9027, UC 9027, read-out: Minimum inhibitory concentration) of 37.5 µg/mL (≈ 140 µM), an MIC (Enterobacter cloacae) of over 600 µg/mL and an MIC (Streptococcus pneumoniae) of over 600 µg/mL. For the same compound, the MIC (Staphylococcus aureus; UC76, UC 76, read-out: Minimum inhibitory concentration) was 75 µg/mL (≈ 281 µM), the MIC (Staphylococcus aureus; UC3665, UC 3665, read-out: Minimum inhibitory concentration) was 75 µg/mL (≈ 281 µM) and the MIC (Staphylococcus aureus; UC6675, UC 6675, read-out: Minimum inhibitory concentration) was 75 µg/mL (≈ 281 µM). For the same compound, the MIC (Staphylococcus aureus; UC6685, UC 6685, read-out: Minimum inhibitory concentration) was 600 µg/mL (≈ 2240 µM), the MIC (Klebsiella pneumoniae) was 300 µg/mL (≈ 1120 µM) and the MIC (Citrobacter freundii) was over 600 µg/mL. For the same compound, the MIC (Escherichia coli) was 600 µg/mL (≈ 2240 µM), the MIC (Serratia marcescens) was over 600 µg/mL and the MIC (Streptococcus pyogenes) was over 600 µg/mL. For the same compound, the “Activity against various Gram-positive bacteria” value (Gram-positive bacteria) was “active”.
